Test results as given in US12679878B2, “CRF2 receptor agonists and their use in therapy” (SANOFI, priority 2020, dated 2026).
Starred links: 1 amine or outer side, 2 acyl side, 3 side chain; linkers in the order of their positions; H or OH if unused. Non-standard residues stand in square brackets, D forms with d. Residues, ends and D or L forms follow the SMILES beside them. Groups on a side chain read outwards from the residue. *: point of attachment. C20 diacid = O=C(O)CCCCCCCCCCCCCCCCCCC(=O)*; C18 diacid = O=C(O)CCCCCCCCCCCCCCCCC(=O)*; γGlu = O=C(O)[C@H](CCC(=O)[*:2])N[*:1]; Palmitoyl = CCCCCCCCCCCCCCCC(=O)*; AEEA = NCCOCCOCC(=O)O; Aib = CC(C)(N)C(=O)O

Tests used:
CRF1R receptor = molecular target: T1, CRF1R receptor (Homo sapiens, UniProt P34998); experiment: cAMP activity at anti-target CRF1R, CHO-K1 cell line clone 2 (Example 19.10); format: cell-based; details: CRF1R CHO-K1 clone 2; for Emax: 100% = Sauvagine at 100 nM; for EC50: 0% HSA, read-out: EC50 [nM] 0% HSA
T1 construct: host or cells: CHO-K1 clone 2
T1 sequence (P34998 24-415): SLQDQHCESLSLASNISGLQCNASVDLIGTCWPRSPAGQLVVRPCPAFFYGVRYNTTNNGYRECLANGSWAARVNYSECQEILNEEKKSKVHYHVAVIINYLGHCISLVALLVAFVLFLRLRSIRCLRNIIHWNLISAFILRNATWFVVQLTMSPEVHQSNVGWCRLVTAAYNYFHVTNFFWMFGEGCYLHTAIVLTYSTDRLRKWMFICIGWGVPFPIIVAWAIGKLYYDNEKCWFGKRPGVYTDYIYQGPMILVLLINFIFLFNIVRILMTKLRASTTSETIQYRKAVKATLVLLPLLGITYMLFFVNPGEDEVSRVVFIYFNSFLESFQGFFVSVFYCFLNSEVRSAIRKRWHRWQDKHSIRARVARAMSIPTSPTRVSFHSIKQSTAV
Procedure: The CRF1R-overexpression CHO-K1 cell line clone 2 was purchased from PerkinElmer.
Cells were grown in a 10 cm dish at 37° C./5% CO2 in medium (F12 (Hams)/10% FBS/400 μg/ml G418) to near confluence. At that stage, cells were harvested, resuspended to 10 million/mL in culture medium without G418 and with 10% DMSO. 1 mL vial aliquots were slowly frozen to -80° C. in isopropanol and then transferred in liquid nitrogen for storage. These vials were used to run the experiment following the procedure reported 10 in the previous paragraph, except for the compound used in the control well to define the 100% activation (Sauvagine at 100 nM)

human CRF2α receptor = molecular target: T2, human CRF2α receptor (Homo sapiens, UniProt Q13324); experiment: cAMP agonism at human CRF2 α receptor in TeloHEAC cells (Example 7); format: cell-based; details: cAMP HTRF, TeloHEAC cells stably expressing human CRF2 α, 0% HSA; read-out: EC50 [nM], 0% HSA
T2 construct: expressed in transfected cells; host or cells: TeloHEAC
T2 sequence (Q13324 1-411): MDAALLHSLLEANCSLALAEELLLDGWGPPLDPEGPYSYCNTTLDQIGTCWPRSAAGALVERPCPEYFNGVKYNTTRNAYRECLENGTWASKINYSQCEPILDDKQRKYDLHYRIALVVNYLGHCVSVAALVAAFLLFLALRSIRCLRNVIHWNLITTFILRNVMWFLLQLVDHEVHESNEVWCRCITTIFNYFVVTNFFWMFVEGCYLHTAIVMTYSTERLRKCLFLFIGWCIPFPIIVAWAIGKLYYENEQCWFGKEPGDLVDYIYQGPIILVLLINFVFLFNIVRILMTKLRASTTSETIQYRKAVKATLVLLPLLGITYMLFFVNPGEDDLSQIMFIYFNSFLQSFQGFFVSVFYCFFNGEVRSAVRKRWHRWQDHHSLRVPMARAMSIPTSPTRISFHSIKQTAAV
Summary of the method: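 Steps: thaw and wash cells; suspend in 1×HBSS, 20 mM HEPES, 0 or 0.1% HSA, 2 mM IBMX; add compound, 30 min RT; lyse with HTRF reagents, 1 h; read 665/620 nm. EC50 calculated, E% versus 1000 nM UCN2.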

Compound	Emax (CRF1R receptor)	EC50 (human CRF2α receptor)	EC50 (CRF1R receptor)
CC[C@H](C)[C@H](N)C(=O)N[C@H](C(=O)N[C@@H](CC(C)C)C(=O)N[C@@H](CO)C(=O)N[C@@H](CC(C)C)C(=O)N[C@@H](CC(=O)O)C(=O)N[C@@H](C(=O)N1CCC[C@H]1C(=O)N[C@H](C(=O)N[C@@H](CCCCN)C(=O)N[C@@H](CC(C)C)C(=O)N[C@@H](CCCCNC(=O)COCCOCCNC(=O)COCCOCCNC(=O)CC[C@H](NC(=O)CCCCCCCCCCCCCCCCCCC(=O)O)C(=O)O)C(=O)N[C@@H](CCCCN)C(=O)N[C@@H](CCCCN)C(=O)N[C@@H](CC(C)C)C(=O)N[C@@H](CC(C)C)C(=O)N[C@@H](CCCCN)C(=O)N[C@@H](CCC(N)=O)C(=O)N[C@@H](CCC(=O)O)C(=O)N[C@@H](CCCNC(=N)N)C(=O)N[C@@H](CCCCN)C(=O)N[C@@H](CCCNC(=N)N)C(=O)NC(C)(C)C(=O)N[C@@H](CCC(=O)O)C(=O)N[C@@H](CCCNC(=N)N)C(=O)N[C@@H](CCC(=O)O)C(=O)N[C@@H](CCCCN)C(=O)N[C@@H](C)C(=O)N[C@@H](CCC(=O)O)C(=O)N[C@@H](CCCCN)C(=O)N[C@@H](C)C(=O)N[C@@H](C)C(=O)N[C@@H](CCCNC(=N)N)C(=O)N[C@H](C(=O)N[C@@H](CC(C)C)C(=O)N[C@@H](CCC(=O)O)C(=O)N[C@@H](CCCNC(=N)N)C(=O)N[C@H](C(N)=O)C(C)C)[C@@H](C)CC)[C@@H](C)O)C(C)C)C(C)C [SEQ ID NO: 224, IVLSLDvPTKLK*KKLLKQERKRAibEREKAEKAARILERV-NH2] (H-IVLSLD[dV]PTKLK([AEEA-AEEA-γGlu-C20 diacid])KKLLKQERKR[Aib]EREKAEKAARILERV-NH2; N-terminus assumed)	52.6%	–	–
CC[C@H](C)[C@H](N)C(=O)N[C@H](C(=O)N[C@@H](CC(C)C)C(=O)N[C@@H](CO)C(=O)N[C@@H](CC(C)C)C(=O)N[C@@H](CC(=O)O)C(=O)N[C@H](C(=O)N1CCC[C@H]1C(=O)N[C@H](C(=O)NCC(=O)N[C@@H](CC(C)C)C(=O)N[C@@H](CCCCNC(=O)COCCOCCNC(=O)COCCOCCNC(=O)CC[C@H](NC(=O)CCCCCCCCCCCCCCCCC(=O)O)C(=O)O)C(=O)N[C@@H](CCC(N)=O)C(=O)N[C@@H](CCCCN)C(=O)N[C@@H](CC(C)C)C(=O)N[C@@H](CC(C)C)C(=O)N[C@@H](CCCCN)C(=O)N[C@@H](CCC(N)=O)C(=O)N[C@@H](CCC(N)=O)C(=O)N[C@@H](CCCNC(=N)N)C(=O)N[C@@H](CCC(N)=O)C(=O)N[C@@H](CCCNC(=N)N)C(=O)N[C@@H](CCCCN)C(=O)N[C@@H](CCC(=O)O)C(=O)N[C@@H](CCCNC(=N)N)C(=O)N[C@@H](CCC(N)=O)C(=O)N[C@@H](CCC(N)=O)C(=O)N[C@@H](C)C(=O)N[C@@H](CCC(=O)O)C(=O)N[C@@H](CCCCN)C(=O)N[C@@H](CC(N)=O)C(=O)N[C@@H](C)C(=O)N[C@@H](CCCNC(=N)N)C(=O)N[C@H](C(=O)N[C@@H](CC(C)C)C(=O)N[C@@H](C)C(=O)N[C@@H](CCCNC(=N)N)C(=O)N[C@H](C(N)=O)C(C)C)[C@@H](C)CC)[C@@H](C)CC)C(C)C)C(C)C [compound 16] (H-IVLSLDVPIGLK([AEEA-AEEA-γGlu-C18 diacid])QKLLKQQRQRKERQQAEKNARILARV-NH2)	0.4%	–	–
CC[C@H](C)[C@H](N)C(=O)N[C@H](C(=O)N[C@@H](CC(C)C)C(=O)N[C@@H](CO)C(=O)N[C@@H](CC(C)C)C(=O)N[C@@H](CC(=O)O)C(=O)N[C@H](C(=O)N1CCC[C@H]1C(=O)N[C@H](C(=O)N[C@@H](CCCCN)C(=O)N[C@@H](CC(C)C)C(=O)N[C@@H](CCCCNC(=O)COCCOCCNC(=O)COCCOCCNC(=O)CC[C@H](NC(=O)CCCCCCCCCCCCCCCCC(=O)O)C(=O)O)C(=O)N[C@@H](CCC(N)=O)C(=O)N[C@H](C(=O)N[C@@H](CC(C)C)C(=O)N[C@@H](CC(C)C)C(=O)N[C@@H](CCCCN)C(=O)N[C@@H](CCC(N)=O)C(=O)N[C@@H](CCC(=O)O)C(=O)N[C@@H](CCCNC(=N)N)C(=O)N[C@@H](CCC(N)=O)C(=O)N[C@@H](CCCCN)C(=O)NC(C)(C)C(=O)N[C@@H](CCC(N)=O)C(=O)N[C@@H](CCCNC(=N)N)C(=O)N[C@@H](CCC(N)=O)C(=O)N[C@@H](CCCCN)C(=O)N[C@@H](C)C(=O)N[C@@H](CCC(=O)O)C(=O)N[C@@H](CCCCN)C(=O)N[C@@H](CC(N)=O)C(=O)N[C@@H](CCCCN)C(=O)N[C@@H](CCC(N)=O)C(=O)N[C@H](C(=O)N[C@@H](CC(C)C)C(=O)N[C@@H](C)C(=O)N[C@@H](CCC(N)=O)C(=O)N[C@H](C(N)=O)C(C)C)[C@@H](C)CC)[C@@H](C)CC)[C@@H](C)CC)C(C)C)C(C)C [compound 22] (H-IVLSLDVPIKLK([AEEA-AEEA-γGlu-C18 diacid])QILLKQERQK[Aib]QRQKAEKNKQILAQV-NH2)	1.2%	0.12 nM	> 100 nM
CCCCCCCCCCCCCCCC(=O)N[C@@H](CCC(=O)NCCCC[C@H](NC(=O)[C@H](CC(C)C)NC(=O)[C@H](CCCCN)NC(=O)[C@@H](NC(=O)[C@@H]1CCCN1C(=O)[C@H](NC(=O)[C@H](CC(=O)O)NC(=O)[C@H](CC(C)C)NC(=O)[C@H](CO)NC(=O)[C@H](CC(C)C)NC(=O)[C@@H](NC(=O)[C@@H](N)[C@@H](C)CC)C(C)C)C(C)C)[C@@H](C)O)C(=O)N[C@@H](CCCCN)C(=O)N[C@@H](CCCCN)C(=O)N[C@@H](CC(C)C)C(=O)N[C@@H](CC(C)C)C(=O)N[C@@H](CCCCN)C(=O)N[C@@H](CCC(N)=O)C(=O)N[C@@H](CCC(=O)O)C(=O)N[C@@H](CCCNC(=N)N)C(=O)N[C@@H](CCCCN)C(=O)N[C@@H](CCCNC(=N)N)C(=O)N[C@@H](CCCCN)C(=O)N[C@@H](CCC(=O)O)C(=O)N[C@@H](CCCNC(=N)N)C(=O)N[C@@H](CCC(=O)O)C(=O)N[C@@H](CCCCN)C(=O)N[C@@H](C)C(=O)N[C@@H](CCC(=O)O)C(=O)N[C@@H](CCCCN)C(=O)N[C@@H](CC(N)=O)C(=O)N[C@@H](C)C(=O)N[C@@H](CCCNC(=N)N)C(=O)N[C@H](C(=O)N[C@@H](CC(C)C)C(=O)N[C@@H](CCC(=O)O)C(=O)N[C@@H](CCCNC(=N)N)C(=O)N[C@H](C(N)=O)C(C)C)[C@@H](C)CC)C(=O)O [compound 25] (H-IVLSLD[dV]PTKLK([γGlu-Palmitoyl])KKLLKQERKRKEREKAEKNARILERV-NH2)	0.1%	0.09 nM	> 100 nM
CCCCCCCCCCCCCCCC(=O)N[C@@H](CCC(=O)NCCCC[C@H](NC(=O)[C@H](CC(C)C)NC(=O)[C@H](CCCCN)NC(=O)[C@@H](NC(=O)[C@@H]1CCCN1C(=O)[C@H](NC(=O)[C@H](CC(=O)O)NC(=O)[C@H](CC(C)C)NC(=O)[C@H](CO)NC(=O)[C@H](CC(C)C)NC(=O)[C@@H](NC(=O)[C@@H](N)[C@@H](C)CC)C(C)C)C(C)C)[C@@H](C)O)C(=O)N[C@@H](CCCCN)C(=O)N[C@@H](CCCCN)C(=O)N[C@@H](CC(C)C)C(=O)N[C@@H](CC(C)C)C(=O)N[C@@H](CCCCN)C(=O)N[C@@H](CCC(N)=O)C(=O)N[C@@H](CCC(=O)O)C(=O)N[C@@H](CCCNC(=N)N)C(=O)N[C@@H](CCCCN)C(=O)N[C@@H](CCCNC(=N)N)C(=O)N[C@@H](CCCCN)C(=O)N[C@@H](CCC(=O)O)C(=O)N[C@@H](CCCNC(=N)N)C(=O)N[C@@H](CCC(=O)O)C(=O)NC(C)(C)C(=O)N[C@@H](C)C(=O)N[C@@H](CCC(=O)O)C(=O)N[C@@H](CCCCN)C(=O)N[C@@H](CC(N)=O)C(=O)N[C@@H](C)C(=O)N[C@@H](CCCNC(=N)N)C(=O)N[C@H](C(=O)N[C@@H](CC(C)C)C(=O)N[C@@H](CCC(=O)O)C(=O)N[C@@H](CCCNC(=N)N)C(=O)N[C@H](C(N)=O)C(C)C)[C@@H](C)CC)C(=O)O [compound 26] (H-IVLSLD[dV]PTKLK([γGlu-Palmitoyl])KKLLKQERKRKERE[Aib]AEKNARILERV-NH2; N-terminus assumed)	0.6%	0.01 nM	> 100 nM
